Common to all, as to assay type: cell-based, human
In one test the test system is MAPK. The test can be described thus: Anti-phospho-MAPK immunoblot of cell lysates. As for the experimental part: FIG. 12. N-cadherin synergizes with FGF-2 in promoting MAPK activation and MMP-9 production. A. MCF-7 breast cancer cells expressing either control vector (control) or N-cadherin (N-cad-5) were treated with or without FGF-2 and the relative activation of MAPK was assessed by blotting the lysates with anti phospho-MAPK (P-MAPK) (upper panel A, lanes 1-4) against the total levels of MAPK in the same lysates (T-MAPK) (lower panel A, lanes 1-4). B. MCF-7 breast cancer cells expressing N-cadherin (N-cad-5) were treated with or without FGF-2 in the absence or presence of a potent inhibitor of MAPK ([…]) and cell lysates were blotted with anti-P-MAPK antibodies (lower panel B) or assayed for MMP (Matrix Metallo Protease) production (upper panel B).
To determine whether N-cadherin/FGF-2-stimulated expression of MMP-9 is caused by increased MAPK activity, levels of MAPK activation in N-cadherin-expressing MCF-7 cells (N-cad-5) were compared to those found in control MCF-7 cells (Neo-mass) in response to FGF-2. Serum-starved control and N-cad-5 cells were treated with 10 ng/mL FGF-2 for 10 min and 30 μg of cell lysate were subjected to SDS-PAGE and immunobloting with either anti-phospho-MAPK (P-MAPK) or anti-total MAPK (T-MAPK).
A general note: In western blotting, separated proteins are transferred to a membrane and probed.

The next test deals with MMP-9. The test can be described thus: Zymography of conditioned media. How it is done:
FIG. 9. FGF-2 stimulates Matrigel invasion of N-cadherin-expressing cells and expression of MMP-9. (A) Invasion through Matrigel-coated filters of control and N-cadherin-expressing cells, pretreated for 24 h with 10 ng/ml of FGF-2 or left untreated, as measured 5 h after inoculation into Transwell chambers. The invading cells were stained (see Materials and Methods) and photographed using a digital microscope camera. Each panel illustrates a sample representing three to six filters. (B) Gelatinolytic activity of conditioned media of control (Neo-mass) (lanes 1 and 2) or N-cadherin-transfected MCF-7 cells (N-cad-mas, N-cad-5, and N-cad-17; lanes 3-8) that were either treated with FGF-2, or left untreated, as indicated. […]
FIG. 12. […] A. MCF-7 breast cancer cells expressing either control vector (control) or N-cadherin (N-cad-5) were treated with or without FGF-2 and the relative activation of MAPK was assessed by blotting the lysates with anti phospho-MAPK (P-MAPK) (upper panel A, lanes 1-4) against the total levels of MAPK in the same lysates (T-MAPK) (lower panel A, lanes 1-4). […]
Secreted metalloproteinases were detected and characterized by zymography (Nakajima I et al., 1995, Br. J. Cancer. 71:1039-1045). […]

A further test deals with Neo-mass cell line. The test can be described thus: Transwell migration after FGF-2 pretreatment. The conditions noted are these: pretreated 24 h with 10 ng/ml FGF-2, measured 5 h after inoculation into Transwell chambers. How it is done:
(§1) FIG. 8. Stimulates cell migration of N-cadherin-expressing cells. The motility of control (Neo-mass) and N-cadherin-expressing cells (N-cad-mass, N-cad-5, and N-cad-17), pretreated for 24 h with 10 ng/ml of FGF-2 or left untreated, was measured 5 h after inoculation into the Transwell chambers. (A) The migrating cells were fixed, stained, and photographed; each panel represents an example of 3-6 replicates. (B) Bar graphs represent quantitation of triplicate wells. The experiment was repeated six times.
(§2) The ability of cells to migrate through control (migration) or invade through Matrigel-coated filters (invasion) was measured in a Boyden chamber, 8-micron Transwell filters, which were coated with or without 50 μg Matrigel (Becton Dickinson & Co.), were used according to standard protocols (Albini A et al., 1987, Cancer Res 47:3239-3245). Fibroblast conditioned medium, which was obtained by a 24-h incubation of NTH-3T3 cells with 50 μg/mL ascorbic acid in serum-free DME media, was placed in the lower chamber as a chemoattractant. […] Values for invasion were expressed as the average number of migrated cells bound per microscopic field over four fields per assay and expressed as averages for triplicate experiments.

Test [1] concerns N-cadherin-expressing cell lines (N-cad-mass, N-cad-5, N-cad-17). The test can be described thus: Transwell migration after FGF-2 pretreatment. The following applies: pretreated 24 h with 10 ng/ml FGF-2, measured 5 h after inoculation into Transwell chambers. As for the experimental part:
as §1, §2

The test system of the next test is MMP. As to the kind of experiment: Zymography of conditioned media. As for the experimental part:
(§3) FIG. 9. FGF-2 stimulates Matrigel invasion of N-cadherin-expressing cells and expression of MMP-9. (A) Invasion through Matrigel-coated filters of control and N-cadherin-expressing cells, pretreated for 24 h with 10 ng/ml of FGF-2 or left untreated, as measured 5 h after inoculation into Transwell chambers. The invading cells were stained (see Materials and Methods) and photographed using a digital microscope camera. Each panel illustrates a sample representing three to six filters. (B) Gelatinolytic activity of conditioned media of control (Neo-mass) (lanes 1 and 2) or N-cadherin-transfected MCF-7 cells (N-cad-mas, N-cad-5, and N-cad-17; lanes 3-8) that were either treated with FGF-2, or left untreated, as indicated. (C) Gelatinolytic activity of conditioned media of Neo-mass, N-cad-mass, N-cad-5, and N-cad- 17 that were pretreated for 24 h either with 10 ng/ml of FGF-2 (lanes 1, 3, 5 and 7, respectively) or 5 μg/ml insulin (lanes 2, 4, 6, and 8, respectively).
(§4) Secreted metalloproteinases were detected and characterized by zymography (Nakajima I et al., 1995, Br. J. Cancer. 71:1039-1045). Conditioned media were obtained by a 30-h incubation of N-cadherin and control transfected cells, which were treated overnight with or without FGF-2 (10 ng/ml) and heparin (0.1 mg/ml) in serum-free media. Conditioned media (20 μl) were loaded on 8% SDS PAGE gels that had been copolymerized with 1 mg/ml gelatin. Electrophoresis was performed under nonreducing conditions at 100 V for 2 h at 4° C. Gels were washed once for 30 min in 2.5% Triton X-100 to remove SDS, and were incubated in collagenase buffer (100 mM Tris-HCl pH 8.0, 5 mM CaCl2, 0.02% NaN3) for 40 h at 37° C. Gels were stained with 0.5% Coomassie blue in 30% methanol/10% acetic acid for 30 min at room temperature and destained in 30% methanol/10% acetic acid three times for 15 min. The presence of metalloproteinases was indicated by an unstained proteolytic zone in the substrate. […]

The test system of another test is MMP-2. As to the kind of experiment: Zymography of conditioned media. The following applies: N-cadherin transfectants, FGF-2 10 ng/ml. As for the experimental part: as §3, §4
Another test relates to Neo-mass cell. The test can be described thus: Matrigel invasion assay after FGF-2 pretreatment. The conditions noted are these: 10 ng/ml FGF-2 for 24 h, 5 h of incubation. How it is done: (§5) FIG. 9. FGF-2 stimulates Matrigel invasion of N-cadherin-expressing cells and expression of MMP-9. (A) Invasion through Matrigel-coated filters of control and N-cadherin-expressing cells, pretreated for 24 h with 10 ng/ml of FGF-2 or left untreated, as measured 5 h after inoculation into Transwell chambers. The invading cells were stained (see Materials and Methods) and photographed using a digital microscope camera. Each panel illustrates a sample representing three to six filters. (B) Gelatinolytic activity of conditioned media of control (Neo-mass) (lanes 1 and 2) or N-cadherin-transfected MCF-7 cells (N-cad-mas, N-cad-5, and N-cad-17; lanes 3-8) that were either treated with FGF-2, or left untreated, as indicated. […] The ability of cells to migrate through control (migration) or invade through Matrigel-coated filters (invasion) was measured in a Boyden chamber, 8-micron Transwell filters, which were coated with or without 50 μg Matrigel (Becton Dickinson & Co.), were used according to standard protocols (Albini A et al., 1987, Cancer Res 47:3239-3245). […] Values for invasion were expressed as the average number of migrated cells bound per microscopic field over four fields per assay and expressed as averages for triplicate experiments.

The subject of test [2] is N-cadherin-expressing MCF-7 cells. As to the kind of experiment: Matrigel invasion assay after FGF-2 pretreatment. The conditions noted are these: N-cad mass, N-cad-5 and N-cad-17; 10 ng/ml FGF-2 for 24 h, 5 h of incubation. As for the experimental part:
as §5

Where [3] appears, read: N-cad-5 cells, FGF-2 plus inhibitor.

Entries after “also recorded” stand apart in the source; their conditions may differ.

Take `COc1cccc(-c2cc(=O)c3ccccc3o2)c1N` [PD 90859, reference compound]: the “phosphorylation of MAPK induced by FGF-2” value in the test with MAPK (setting [3]) is recorded as “blocked effectively”. In addition, the “production of MMP-9 induced by FGF-2” value in the test on MMP-9 (setting [3]) is “blocked”.
With “FGF-2: growth factor FGF-2, purchased from Pepro Tech”, the motility result with Neo-mass cell line is on record as “did not affect”; in test [1], “dramatic increase”. Moreover, the MMP production entry with MMP (Neo-mass cells, FGF-2 10 ng/ml, conditioned media) is reported as “no effect”. Besides, the MMP-2 production entry with MMP-2 is “absence of detectable effects”. Moreover, the “invasion through Matrigel-coated filters” value with Neo-mass cell is on record as “not effect”. For the same compound, the “invasiveness through Matrigel-coated filters” value in test [2] was “further enhanced; also recorded: stimulates”. Moreover, the MAPK phosphorylation result with MAPK (N-cad-5 cells, 10 ng/mL FGF-2 for 10 min) is “marked increase”. The “MAPK phosphorylation (ERK/P44 isoform)” value in the test with MAPK (control MCF-7 cells, in the presence of FGF-2) is “only low levels of phosphorylation”. Besides, in the test on MMP-9 (all N-cadherin transfectants, FGF-2 10 ng/ml, conditioned media), the “expression of MMP-9” value is reported as “dramatically increased; also recorded: stimulates”.
In the case of “insulin: Insulin from Sigma, used at a concentration that acts through the IGF-1 receptor”, the MMP levels result in the test with MMP (N-cad-mass, N-cad-5, N-cad-17, 5 μg/ml insulin for 24 h) is recorded as “no effect”.

(Values after patent US20030054985A1, “N-cadherin modulated migration, invasion, and metastasis” (priority 2000, published 2003).)
